In patent publication US4342690A, “ω-Heteroaroyl(propionyl or butyryl)-L-prolines” (American Cyanamid Company, priority 1981, dated 1982) one finds IC50 data, which are given here for seven compounds.

This assay addresses T1, angiotensin converting enzyme (Oryctolagus cuniculus, UniProt P12822).
T1 construct: The ACE was extracted from rabbit lung acetone powder; tissue Pel-Freez Biol. Inc; host or cells: rabbit lung (acetone powder)
T1 sequence (P12822 34-1310): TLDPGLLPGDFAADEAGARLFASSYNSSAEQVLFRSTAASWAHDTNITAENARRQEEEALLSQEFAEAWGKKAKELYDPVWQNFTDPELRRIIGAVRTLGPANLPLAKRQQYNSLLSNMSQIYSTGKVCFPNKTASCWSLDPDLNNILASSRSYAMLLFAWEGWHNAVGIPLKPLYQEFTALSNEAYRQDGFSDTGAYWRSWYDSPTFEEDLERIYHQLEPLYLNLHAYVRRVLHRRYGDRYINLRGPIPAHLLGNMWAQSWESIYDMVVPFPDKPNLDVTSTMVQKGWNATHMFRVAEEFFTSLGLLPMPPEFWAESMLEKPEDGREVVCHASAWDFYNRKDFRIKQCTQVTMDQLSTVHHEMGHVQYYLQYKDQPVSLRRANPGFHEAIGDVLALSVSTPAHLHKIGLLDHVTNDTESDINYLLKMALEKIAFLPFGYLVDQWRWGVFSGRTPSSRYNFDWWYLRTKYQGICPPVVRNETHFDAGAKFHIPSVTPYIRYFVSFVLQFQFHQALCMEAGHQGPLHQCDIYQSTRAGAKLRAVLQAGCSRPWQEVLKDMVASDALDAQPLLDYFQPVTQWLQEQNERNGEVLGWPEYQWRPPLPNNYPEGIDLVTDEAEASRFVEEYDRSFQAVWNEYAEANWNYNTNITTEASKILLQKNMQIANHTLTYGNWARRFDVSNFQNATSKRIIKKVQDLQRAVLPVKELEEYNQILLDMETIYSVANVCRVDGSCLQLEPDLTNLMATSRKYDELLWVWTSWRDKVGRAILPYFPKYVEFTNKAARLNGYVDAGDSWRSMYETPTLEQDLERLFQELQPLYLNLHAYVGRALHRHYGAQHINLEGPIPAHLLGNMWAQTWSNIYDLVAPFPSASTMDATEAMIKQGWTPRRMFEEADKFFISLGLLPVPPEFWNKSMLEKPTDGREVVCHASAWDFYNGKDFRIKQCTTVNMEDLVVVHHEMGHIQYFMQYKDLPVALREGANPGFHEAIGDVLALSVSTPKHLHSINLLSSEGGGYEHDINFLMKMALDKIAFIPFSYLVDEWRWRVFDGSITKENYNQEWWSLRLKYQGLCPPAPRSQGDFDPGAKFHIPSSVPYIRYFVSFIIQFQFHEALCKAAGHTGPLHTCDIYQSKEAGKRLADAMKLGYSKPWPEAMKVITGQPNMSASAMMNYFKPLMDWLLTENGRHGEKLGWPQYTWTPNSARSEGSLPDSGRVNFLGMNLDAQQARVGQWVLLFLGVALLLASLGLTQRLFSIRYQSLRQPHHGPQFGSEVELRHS
The experiment in a line: Spectrophotometric Assay for Angiotensin Converting Enzyme Inhibitors. The assay is classed as biochemical. The conditions noted are these: substrate benzoyl-glycyl-histidyl-leucine; crude ACE extract from rabbit lung acetone powder; 30 minutes at 37° C. From the text: The activity of the novel compounds of this invention as hypotensive agents was established in two systems which measure their ability as angiotensin converting enzyme inhibitors; by utilizing a spectrophotometric assay of the compounds in vitro and by the measurement of the blood pressure lowering effect of the compounds in the aorta-coarcted renal hypertensive rats.
Spectrophotometric Assay for Angiotensin Converting Enzyme Inhibitors
The in vitro activity for inhibition of the angiotensin converting enzyme (ACE) was measured by the method of Cushman, D. W. and Cheung, H. S., Biochem. Pharmacol., 20, 1637-1648 (1971), using benzoyl-glycyl-histidyl-leucine as the substrate. The reaction mixture consisted of 50 μl. of potassium phosphate (500 mM., pH 10.2), […]. of sodium chloride (2500 mM.), 25 μl. of substrate (50 mM.), 30 to 50 μl. of the crude extract of ACE, 10 μl. of test compound (2.5 mM.) or vehicle and a suitable amount of distilled water to give a total volume of 250 μl. This reaction mixture was incubated for 30 minutes at 37° C. and the reaction was then terminated by the addition of 250 μl. of 1 N hydrochloric acid. The hippuric acid was then extracted with 1.5 ml. of ethyl acetate by vortex mixing for 15 seconds. After centrifugation, one ml. of th ethyl acetate layer was pipetted into a new tube and vaporated to dryness. The extracted hippuric acid was then dissolved in one ml. of water and the amount of this acid was then measured by its absorbance at 228 nm. The ACE was extracted from rabbit lung acetone powder (Pel-Freez Biol. Inc.) by blending 5 g. of the powder in 50 ml. of phosphate buffer (50 mM., pH 8.3) and then centrifuging at 40,000 g for 40 minutes. The supernatant was then kept at 5° C. and used as the enzyme source. The activity of the ACE inhibitor was calculated as the percent inhibition of ACE activity compared to the control value of that particular assay. A full dose-response inhibitory curve is then performed to determine the IC50 value which may be defined as the molar concentration of a compound that will inhibit the ACE activity by 50%.
The compound `CC(=O)SC(CC(=O)N1CCC[C@H]1C(=O)O)C(=O)c1cc2ccccc2o1` (stereo partly drawn) [Example 37, 1-[3-Acetylthio-3-(2-benzofuranylcarbonyl)propionyl]-L-proline] showed a half-maximal inhibitory concentration (IC50) of 74 nM.

Turning to `CC(=O)SC(C(=O)c1cc2ccccc2s1)C(C)C(=O)N1CCC[C@H]1C(=O)O` (stereo partly drawn) [Example 35, 1-[3-Acetylthio-3-(benzo[b]thien-2-ylcarbonyl)-2-methylpropionyl]-L-proline], it took 21000 nM to reach half-maximal inhibition (IC50). `CC(=O)SC(CC(=O)N1CCC[C@H]1C(=O)O)C(=O)c1csc2ccccc12` (stereo partly drawn) [Example 4, 1-[3-(Acetylthio)-3-(benzo[b]thien-3-ylcarbonyl)propionyl]-L-proline] showed an IC50 of 139 nM.

For the compound `CC(=O)SC(CC(=O)N1CCC[C@H]1C(=O)O)C(=O)c1ccco1` (stereo partly drawn) [Example 36, 1-[3-Acetylthio-3-(2-furoyl)propionyl]-L-proline], the 50% inhibitory concentration (IC50) turned out to be 675 nM. In the case of `CC(=O)SC(CC(=O)N1CCC[C@H]1C(=O)O)C(=O)c1ccc(Cl)s1` (stereo partly drawn) [Example 3, 1-[3-(Acetylthio)-3-(5-chloro-2-thenoyl)propionyl]-L-proline] it was 108 nM; in that of `CC(=O)SC(CC(=O)N1CCC[C@H]1C(=O)O)C(=O)c1cccs1` (stereo partly drawn) [Example 1, 1-[3-(Acetylthio)-3-(2-thenoyl)propionyl]-L-proline], 256 nM. For the compound `CC(=O)SC(CC(=O)N1CCC[C@H]1C(=O)O)C(=O)c1ccc(Br)s1` (stereo partly drawn) [Example 2, 1-[3-(Acetylthio)-3-(5-bromo-2-thenoyl)propionyl]-L-proline], the half-inhibitory concentration (IC50) amounted to 109 nM.
